Data set [1] relates to whole animal tumor models. The conditions noted are these: a number of whole animal tumor models; cited from earlier work.
The subject of data set [2] is HL60. As to the kind of experiment: In vitro antiproliferative MTT assay in HL60, 24 h endpoint. The data set is classed as cell-based, human. To be noted: triplicate determination; for IC50: read-out: IC50 (μM) ± S.D. in HL60. On the procedure: In vitro proliferation assay. Approximately 3 000-5 000 (15 000 cells for HL-60) exponentially growing cells were seeded in each well of a 96-well plate with 50 μl of medium and were allowed to adhere overnight. Cells were then treated with each compound at concentrations ranging from 0.01-10 μM giving the final volume of 100 μl in each well. At the end of incubation period, 15 μl of MTT solution (5.0 mg/ml in PBS) was added and incubated for an additional 4 h. Medium and excessive MTT were aspirated and formazan formed was solubilized with 100 μl of DMSO. Absorbance, as a measurement of viable cell number was read at 570 nm with ThermoLabsystems OpsysMR microplate spectrometer. At least three independent experiments were performed and results are presented as an average.
For orientation: Formazan colour is commonly taken as a measure of viable cells.

The subject of data set [3] is HCT116. Briefly: In vitro anti-proliferative MTT assay, 48 h, HCT116. The data set is classed as cell-based, human. The conditions noted are these: HCT116, colon, 48 h post-treatment, read-out: IC50 (μM) ± S.D., HCT116. The source says:
(§1) In vitro proliferation assay.

Data set [4] deals with MCF-7. Briefly: In vitro anti-proliferative MTT assay, 48 h, MCF-7. The data set is classed as cell-based, human. To be noted: MCF-7, breast, 48 h post-treatment, read-out: IC50 (μM) ± S.D., MCF-7.
Excerpt: as §1

Data set [5] deals with HSC2. As to the kind of experiment: In vitro anti-proliferative MTT assay, 48 h, HSC2. The class given is cell-based, human. The conditions noted are these: HSC2, oral, 48 h post-treatment, read-out: IC50 (μM) ± S.D., HSC2.
Excerpt: as §1

Data set [6] deals with OKF6. As to the kind of experiment: In vitro anti-proliferative MTT assay, 48 h, OKF6 immortalized normal oral keratinocytes. To be noted: immortalized normal human epithelial cells, read-out: IC50 (μM) ± S.D., OKF6. The data set is classed as cell-based.
Excerpt: as §1

Data set [7] deals with HK1. As to the kind of experiment: In vitro anti-proliferative MTT assay, 48 h, HK1. The data set is classed as cell-based, human. To be noted: HK1, nasopharyngeal, 48 h post-treatment, read-out: IC50 (μM) ± S.D., HK1.
Excerpt: as §1

Data set [8] concerns NP69. As to the kind of experiment: In vitro anti-proliferative MTT assay, 48 h, NP69 immortalized normal nasopharyngeal epithelial cells. The class given is cell-based. To be noted: immortalized normal human epithelial cells, read-out: IC50 (μM) ± S.D., NP69.
Excerpt: as §1

Data set [9] can be described thus: Fluorescence quantum yield. The data set is classed as physicochemical. The conditions noted are these: for fluorescence quantum yield: in ethanol, unpublished data. How it is done: Steady-state fluorescence spectroscopic studies were performed on a Cary Eclipse fluorometer. The slit width was 5 nm for both excitation and emission. The relative quantum yields of the samples were obtained by comparing the area under the corrected emission spectrum of the test sample with that of a standard. The quantum efficiencies of fluorescence were obtained from multiple measurements (N=3) with the following equation:
Φx=Φst(Ix/Ist)(Ast/Ax)(ηx^2/ηst^2)
Where Φst is the reported quantum yield of the standard, I is the area under the emission spectra, A is the absorption at the excitation wavelength and η is the refractive index of the solvent used, measured on a pocket refractometer from ATAGO. X subscript denotes test sample, and st denotes standard.

For data set [10], the system named is HSC2 cells. The conditions noted are these: 100 nM. How it is done:
Cellular localization. HSC2 cells grown on round glass coverslips in 12-well plate were co-incubated with 100 nM of compound 11 together with organelle-specific fluorescence probes. The endoplasmic reticulum was labeled with 100 nM of ER-Tracker Blue-White DPX, the lysosomes were stained with 500 nM of LysoTracker Blue DND-22, and the mitochrondria was tracked with 100 nM of Rh123 respectively for 15-30 min of incubation at room temperature. After incubation, cells were gently rinsed in PBS to remove free dyes, and the stained cells were observed using Olympus DSU spinning disk confocal microscope configured with a PlanApo x63 oil objective and iXon EM+(Andor Technology) digital camera. Fluorescent images of X-Y sections at 0.2 μm were collected sequentially using Olympus Cell^R software. Organelle-specific fluorescence probes were respectively excited at 365 nm to illuminate ER-tracker and LysoTracker, at 494 nm for Rh123 and at 575 nm for compound 11.

The subject of data set [11] is HSC2 cells. The conditions noted are these: 0.5 μM. How it is done: AnnexinV-FITC apoptosis analysis. HSC2 cells grown in 60-mm dishes at 50% confluency were treated with 0.5 μM of compound 11. At various treatment intervals, floating cells in the medium were pooled together with the adherent cells after trypsinization and were washed twice with cold PBS. The cells were resuspended with 1× binding buffer at 1×10^6 cells/ml. A 100 μl of cell suspension was transferred to a 5 ml tube followed by […] of AnnexinV-FITC and […] of propidium iodide (200 μg/ml in PBS). The cells were gently mixed and incubated for 15 min at RT in the dark before analysed on a FACSCalibur flow cytometer with 488 nm argon laser. The fluorescence data of 10 000 cells were collected with the FL1 detector with 530/30 band pass filter to collect Annexin-FITC fluorescence, and the FL3 detector with a 630 nm long pass filter to collect propidium iodide fluorescence.

The test system of data set [12] is HSC2 cells. To be noted: IC50 concentration (0.25 μM), 4 h to 48 h. How it is done:
Cell cycle analysis. HSC2 cells were treated and collected as above. Cells were then fixed in 70% ice-cold ethanol (v/v in PBS) overnight at 4° C. Following fixation, the cells were washed twice in cold PBS. The pellet was then resuspended in PBS solution containing 20 μg/ml RNase A and 1 μM SYTOX Green for 30 min. The cells were analysed on a FACSCalibur flow cytometer with 488 nm argon laser. The DNA-SYTOX Green fluorescence of 10 000 cells were collected with the FL1 detector with 530/30 band pass filter.

For data set [13], the system named is transformed mouse mammary epithelial cells. To be noted: cells with increased mitochondrial transmembrane potential; cited from earlier work.
Data set [14] has as its system A6-derived subcutaneous tumors. The conditions noted are these: nude mice, intraperitoneal injection; cited from earlier work.
In data set [15] the test system is cancer cells. To be noted: cited from earlier work.
Data set [16] has as its system carcinoma. To be noted: cited from earlier work.
For data set [17], the system named is carcinoma cell types. The conditions noted are these: in vitro; cited from earlier work.
Data set [18] has as its system non-tumorigenic epithelial cell types. The conditions noted are these: in vitro, similar concentrations; cited from earlier work.
The mark [19] stands for this setting: Homo sapiens, HL-60, HL60, 24 h post-treatment.

Values joined by “and” are separate entries in the source; they are usually repeats but may differ in a detail not shown here. Equal entries are not always repeated. Where two headings read alike, the source gives them in different places.

As to “3-ethyl-3′-methyl-thiatelluracarbocyanine iodide”, in [1], the “activity in whole animal tumor models” value was “anti-carcinoma activity”.

Turning to `Cc1ccccc1-c1c2ccc(=[N+]3CCCC3)cc-2oc2cc(N3CCCC3)ccc12` [Compound 1], in data set [2] (HL60, 24 h post-treatment), the IC50 stood at 0.72 ± 0.09 µM.

With `Cc1ccccc1-c1c2ccc(=[N+]3CCCCC3)cc-2oc2cc(N3CCCCC3)ccc12` [Compound 2], the IC50 in data set [2] (HL60, 24 h post-treatment) amounted to 0.76 ± 0.03 µM.

`Cc1ccccc1-c1c2ccc(=[N+]3CCOCC3)cc-2oc2cc(N3CCCCC3)ccc12.[Cl-]` [Compound 3]: in data set [2] (HL60, 24 h post-treatment), the “IC50 (μM) ± S.D. in HL60” value is reported as “lowest IC50 value among compounds 1-6” and the IC50 was determined as 0.35 ± 0.01 µM.

In the case of `Cc1ccccc1-c1c2ccc(=[N+]3CCOCC3)cc-2oc2cc(N3CCOCC3)ccc12.[Cl-]` [Compound 4], in data set [2] (HL60, 24 h post-treatment), the “IC50 (μM) ± S.D. in HL60” value is “moderate to poor activity” and the half-maximal inhibitory concentration (IC50) is 8.27 µM.

For `Cc1ccccc1-c1c2ccc(=[N+]3CCN(C(=O)OC(C)(C)C)CC3)cc-2oc2cc(N3CCN(C(=O)OC(C)(C)C)CC3)ccc12` [Compound 5], the IC50 in data set [2] (HL60, 24 h post-treatment) amounted to 0.62 ± 0.07 µM.

Consider `Cc1ccccc1-c1c2ccc(=[N+]3CCNCC3)cc-2oc2cc(N3CCNCC3)ccc12.[Cl-]` [Compound 6], for which, in data set [2] (HL60, 24 h post-treatment), the “IC50 (μM) ± S.D. in HL60” value is “moderate to poor activity”; the IC50 is 36.7 µM and 53.3 µM.

In the case of `Cc1c2ccc(=[N+]3CCCCC3)cc-2oc2cc(N3CCCCC3)ccc12.[Cl-]` [Compound 7], in [2] (HL60, 24 h post-treatment), the “IC50 (μM) ± S.D. in HL60” value is “moderate to poor activity” and the concentration for half-maximal inhibition (IC50) amounted to 3.86 ± 1.46 µM.

Regarding `c1ccc(Cc2c3ccc(=[N+]4CCCCC4)cc-3oc3cc(N4CCCCC4)ccc23)cc1` [Compound 8], in [2] (HL60, 24 h post-treatment), the IC50 is 0.82 ± 0.04 µM.

For `[Cl-].c1csc(-c2c3ccc(=[N+]4CCCCC4)cc-3oc3cc(N4CCCCC4)ccc23)c1` [Compound 10], the IC50 in data set [2] (HL60, 24 h post-treatment) is 0.1 µM; in [3] it was 0.15 ± 0.06 µM; in data set [4], 0.27 ± 0.16 µM; in data set [5], 0.12 ± 0.09 µM; in data set [6] it was 0.25 ± 0.1 µM; in data set [7] it was 0.09 ± 0.01 µM. In data set [8], the IC50 came out at 0.33 ± 0.2 µM. Besides, the fluorescence quantum yield in [9] worked out at 0.10 ± 0.01.

In the case of `Ic1ccc(-c2c3ccc(=[N+]4CCCCC4)cc-3oc3cc(N4CCCCC4)ccc23)cc1.[Cl-]` [Compound 11], the IC50 was found to be 0.09 µM in data set [2] (HL60, 24 h post-treatment); 0.39 ± 0.11 µM in data set [3]; 0.39 ± 0.22 µM in data set [4]; 0.25 ± 0.12 µM in [5]; 0.41 ± 0.07 µM in [6]; 0.42 ± 0.06 µM in [7]. Besides, in data set [8], the IC50 was 0.51 ± 0.16 µM. Further, the fluorescence quantum yield in data set [9] came to 0.28 ± 0.01. Besides, in data set [10], the “presence of compound in the nucleus” value is given as “remained free of compound 11”. Besides, in [10], the “staining of the cytoplasmic or nuclear membrane” value is reported as “not detected”. Besides, the “co-localisation with ER and lysosomes” value in data set [10] (ER-Tracker and LysoTracker) is “only partial co-localisation”. Also, the “cells staining positive for annexin V” value is on record as “less than 10%” in data set [11] (0 h or 4 h time-points) and 16% in data set [11] (8 h of compound incubation). In addition, the “proportion of cells undergoing apoptosis” value in data set [11] (within 24 h) is 58%. In [12], the cell cycle profile result is reported as “remained unchanged”.

For the compound `COc1ccc(-c2c3ccc(=[N+]4CCCCC4)cc-3oc3cc(N4CCCCC4)ccc23)cc1` [Compound 12], the 50% inhibitory concentration (IC50) in data set [2] (HL60, 24 h post-treatment) turned out to be 0.66 ± 0.17 µM.

Regarding `COc1ccccc1-c1c2ccc(=[N+]3CCCCC3)cc-2oc2cc(N3CCCCC3)ccc12` [Compound 13], in [2] (HL60, 24 h post-treatment), the IC50 was 0.95 ± 0.01 µM.

Turning to `COc1cccc(OC)c1-c1c2ccc(=[N+]3CCCCC3)cc-2oc2cc(N3CCCCC3)ccc12` [Compound 14], the IC50 in [2] (HL60, 24 h post-treatment) stood at 0.25 ± 0.22 µM.

For `Oc1cccc(O)c1-c1c2ccc(=[N+]3CCCCC3)cc-2oc2cc(N3CCCCC3)ccc12` [Compound 15], the “IC50 (μM) ± S.D. in HL60” value in data set [2] (HL60, 24 h post-treatment) is “moderate to poor activity”. In addition, the IC50 in data set [2] (setting [19]) came to 2.91 ± 1.86 µM.

Consider `O=C(O)COc1cccc(OCC(=O)O)c1-c1c2ccc(=[N+]3CCCCC3)cc-2oc2cc(N3CCCCC3)ccc12` [Compound 16], for which the “IC50 (μM) ± S.D. in HL60” value in data set [2] (HL60, 24 h post-treatment) is on record as “moderate to poor activity”. Besides, the IC50 in [2] (setting [19]) was more than 100 µM. In data set [9] (in phosphate buffer), this compound displayed a quantum yield of 0.13.

Consider `C[n+]1ccc(/C=C/c2c[nH]c3ccccc23)cc1.[I-]` [Compound F16], for which, in [13], the “proliferation of transformed mouse mammary epithelial cells” value is “selectively inhibited proliferation”. In addition, the “growth of A6-derived subcutaneous tumors” value in data set [14] is “retard the growth”.

`CCn1c(=O)/c(=C2\Sc3ccccc3N2C)s/c1=C\c1cccc[n+]1CC.[Cl-]` [MKT-077]: the “growth of cancer cells in vitro and in vivo” value in data set [15] is given as “significantly inhibit growth”. The “accumulation in tumor cell mitochondria” value in data set [16] (clinical study) is recorded as “preferentially accumulated in tumor cell mitochondria”. For the same compound, in data set [16] (phase II, approved dosage and drug regimen), the clinical efficacy entry is “lack of efficacy”.

`COC(=O)c1ccccc1-c1c2ccc(=N)cc-2oc2cc(N)ccc12.Cl` [Rh123, rhodamine 123, reference compound]: the IC50 in data set [3] worked out at 7.92 ± 0.95 µM; in data set [4], 5.61 ± 0.61 µM; in data set [5] it was 4.48 ± 2.23 µM; in [6], 9.84 ± 3.46 µM; in [7], 5.86 ± 0.15 µM; in [8] it was 6.28 ± 0.21 µM. Also, the “carcinoma cell types in which cell death was markedly induced” value in [17] was 9/9. Also, the “non-tumorigenic epithelial cell types that remained unaffected” value in data set [18] is reported as 6/6.

As for `Cc1cc(N)c2ccccc2[n+]1CCCCCCCCCC[n+]1c(C)cc(N)c2ccccc21` [dequalinium chloride], the “activity in whole animal tumor models” value in data set [1] is reported as “anti-carcinoma activity”.

As usually defined, the IC50 is the concentration that gives 50% inhibition.
